Assay [1] relates to normal pressure monkeys. Put plainly: Intraocular pressure lowering, concomitant administration of omidenepag isopropyl and ripasudil (Example 1). The assay is classed as in vivo, cynomolgus monkey. Particulars: male cynomolgus monkeys, average of 7, eye drop 20 μL: omidenepag isopropyl 0.0006 w/v%, ripasudil eye drops 0.4%. The protocol:
In order to examine usefulness of the combination of omidenepag or an ester thereof or a salt thereof and ripasudil, the effect of lowering an intraocular pressure when omidenepag isopropyl and ripasudil were administered concomitantly to experimental animals (normal pressure monkeys) was investigated.
To purified water were added polyoxyl 35 castor oil, glycerin, sodium citrate, sodium edetate and benzalkonium chloride to dissolve them, and after adjusting pH, purified water was added to adjust the whole amount.
(§1) To purified water were added omidenepag isopropyl, polyoxyl 35 castor oil, glycerin, sodium citrate, sodium edetate and benzalkonium chloride to dissolve them, and after adjusting pH, purified water was added to adjust the whole amount to prepare a 0.0006 w/v% omidenepag isopropyl solution.
Commercially available physiological saline solution (trade name: Otsuka Normal Saline, obtained from Otsuka Pharmaceutical Factory, Inc.) was used as it was.
Commercially available ripasudil eye drop was used as it was.
An effect of lowering an intraocular pressure when omidenepag isopropyl and ripasudil were administered concomitantly was investigated. As a comparative subject, an effect of lowering an intraocular pressure when omidenepag isopropyl or ripasudil was administered alone was also investigated. As a control, the base and the physiological saline solution were administered.
Omidenepag isopropyl solution: 0.0006w/v% omidenepag isopropyl solution (volume of eye dropped: 20 μL) Ripasudil solution: ripasudil eye drop (trade name: Glanatec (Registered Trademark) eye drops 0.4%, volume of eye dropped: 20 μL)
Experimental animal: cynomolgus monkey (sex: male, 7 monkeys per a group)
[1] Concomitant Administration of Omidenepag Isopropyl and Ripasudil
(§2) (1) A drop of 0.4% oxybuprocaine hydrochloride eye drop (trade name: Benoxil (Registered Trademark) eye drops 0.4%) was applied to one eye of an experimental animal and local anesthesia was conducted.
(§3) (2) Immediately before administration of a compound solution to be tested, an intraocular pressure was measured and the value was made an initial intraocular pressure.
(3) The omidenepag isopropyl solution was applied to one eye of the experimental animal (the contralateral eye was untreated). After a short time (after about 5 minutes), the ripasudil solution was applied to the same eye.
(4) After 2 hours, 4 hours, 6 hours, 8 hours and 24 hours from applying the omidenepag isopropyl solution to the eye, one drop of 0.4% oxybuprocaine hydrochloride eye drop was applied to the eye to be measured for the intraocular pressure respectively, and after local anesthesia, the intraocular pressure was measured. Also, the intraocular pressure was measured each three times, and the average value was shown in the results.
[2] Single Administration of Omidenepag Isopropyl
The test was carried out in the same manner as the above-mentioned concomitant administration test except for changing the ripasudil solution to the physiological saline solution.
[3] Single Administration of Ripasudil
The test was carried out in the same manner as the above-mentioned concomitant administration test except for changing the omidenepag isopropyl solution to the base.
The test was carried out in the same manner as the above-mentioned concomitant administration test except for changing the omidenepag isopropyl solution to the base and changing the ripasudil solution to the physiological saline solution.
The changes in the intraocular pressure values are shown by an average value±SEM of the difference from the value (0 hour) before administration of seven monkeys in each group with regard to each measurement time point of each individual. […]

Assay [2] deals with normal pressure monkeys. Put plainly: Intraocular pressure lowering, concomitant administration of omidenepag isopropyl and netarsudil (Example 2). Format: in vivo, cynomolgus monkey. The following applies: male cynomolgus monkeys, average of 8, eye drop 20 μL: omidenepag isopropyl 0.0006 w/v%, netarsudil 0.01 w/v% (dimesylate). The protocol: In order to examine usefulness of the combination of omidenepag or an ester thereof or a salt thereof and netarsudil, the effect of lowering an intraocular pressure when omidenepag isopropyl and netarsudil were administered concomitantly to experimental animals (normal pressure monkeys) was investigated.
(1) Preparation of Base of Omidenepag Isopropyl Solution • (Preparation of Compound Solution to be Tested) […]
(2) Preparation of Omidenepag Isopropyl Solution
as §1
(3) Preparation of Netarsudil Solution
Dimesylate of netarsudil was dissolved in a physiological saline solution containing a solubilizing agent, and then, a netarsudil solution having a desired concentration was prepared by using a commonly used method.
An effect of lowering an intraocular pressure when omidenepag isopropyl and netarsudil were administered concomitantly was investigated. As a comparative subject, an effect of lowering an intraocular pressure when omidenepag isopropyl or netarsudil was administered alone was also investigated. As a control, the base of the omidenepag isopropyl solution and the base of the netarsudil solution were administered.
Omidenepag isopropyl solution: 0.0006w/v% omidenepag isopropyl solution (volume of eye dropped: 20 μL)
Netarsudil solution: 0.01 w/v% netarsudil solution (volume of eye dropped: 20 μL)
Experimental animal: cynomolgus monkey (sex: male, 8 monkeys per a group)
[1] Contamitant Administration of Omidenepag Isopropyl and Netarsudil
as §2, §3
(3) The omidenepag isopropyl solution was applied to one eye of the experimental animal (the contralateral eye was untreated). After a short time (after about 5 minutes), the netarsudil solution was applied to the same eye.
(4) After 2 hours, 4 hours, 6 hours, 8 hours and 24 hours from applying the omidenepag isopropyl solution to the eye, one drop of 0.4% oxybuprocaine hydrochloride eye drop was applied to the eye to be measured for the intraocular pressure respectively, and after local anesthesia, the intraocular pressure was measured. Also, the intraocular pressure was measured each three times, and the average value was shown in the results. […]
The test was carried out in the same manner as the above-mentioned concomitant administration test except for changing the omidenepag isopropyl solution to the base of the omidenepag isopropyl solution. […]
The changes in the intraocular pressure values are shown by an average value±SEM of the difference from the value (0 hour) before administration of eight monkeys in each group with regard to each measurement time point of each individual. Here, the significance was evaluated by the Dunnett-Hsu test, and the significance level with respect to the control group was shown as *: p<0.05, **: p<0.01, and ***: p<0.001, the significance level with respect to the omidenepag isopropyl administered group was shown as †: p<0.05, ††: p<0.01, and †††: p<0.001, and the significance level with respect to the netarsudil administered group was shown as ♯♯: p<0.01, and ♯♯♯p<0.001.

Experimental findings from patent publication US20210106569A1, “OMIDENEPAG COMBINATION” (priority 2017, published 2021) are described below.

As to `CC(C)OC(=O)CNc1cccc(CN(Cc2ccc(-n3cccn3)cc2)S(=O)(=O)c2cccnc2)n1` [Omidenepag isopropyl, isopropyl (6-{[4-(pyrazol-1-yl)benzyl](pyridin-3-ylsulfonyl)aminomethyl}pyridin-2-ylamino)acetate], the “change in intraocular pressure value (difference from value before administration)” value is 0.0 with normal pressure monkeys [1] (2 hours after dropping); −1.2 with normal pressure monkeys [1] (4 hours after dropping); −0.7 with normal pressure monkeys [1] (6 hours after dropping); −0.6 with normal pressure monkeys [1] (8 hours after dropping); −0.1 in the assay on normal pressure monkeys [1] (24 hours after dropping); −0.9 with normal pressure monkeys [2] (2 hours after dropping). Moreover, the “change in intraocular pressure value (difference from value before administration)” value is recorded as −2.5 with normal pressure monkeys [2] (4 hours after dropping), −2.5 in the assay with normal pressure monkeys [2] (6 hours after dropping), −2.3 with normal pressure monkeys [2] (8 hours after dropping) and −0.3 in the assay on normal pressure monkeys [2] (24 hours after dropping).

Turning to `C[C@H]1CNCCCN1S(=O)(=O)c1cccc2cncc(F)c12` [Ripasudil, (S)-(-)-1-(4-fluoro-5-isoquinolinesulfonyl) 2-methyl-1,4-homopiperazine], the “change in intraocular pressure value (difference from value before administration)” value in the assay on normal pressure monkeys [1] (2 hours after dropping) is given as −2.7; in the assay with normal pressure monkeys [1] (4 hours after dropping), −1.6; in the assay on normal pressure monkeys [1] (6 hours after dropping), −1.6; in the assay with normal pressure monkeys [1] (8 hours after dropping), −0.8; in the assay with normal pressure monkeys [1] (24 hours after dropping), 0.0.

In the case of `Cc1ccc(C(=O)OCc2ccc([C@@H](CN)C(=O)Nc3ccc4cnccc4c3)cc2)c(C)c1` [Netarsudil, [4-[(1S)-1-(aminomethyl)-2-(isoquinolin-6-ylamino)-2-oxoethyl]phenyl]methyl 2,4-dimethylbenzoate], the “change in intraocular pressure value (difference from value before administration)” value was −1.5 with normal pressure monkeys [2] (2 hours after dropping); −2.3 with normal pressure monkeys [2] (4 hours after dropping); −3.0 in the assay on normal pressure monkeys [2] (6 hours after dropping); −3.0 in the assay with normal pressure monkeys [2] (8 hours after dropping); −0.8 with normal pressure monkeys [2] (24 hours after dropping).
